Source: ChEMBL document CHEMBL5620429, “Discovery of novel thymidylate synthase (TS) inhibitors that influence cancer angiogenesis and metabolic reprogramming in NSCLC cells” (Eur J Med Chem, 2023)
Activity calls are given as the source filed them. The rule behind the calls is not given here.

How the values were obtained:
[1] = Cytotoxicity against human HLMVEC cells assessed as reduction in cell viability incubated for 24 hrs by MTT assay; format: toxicity, cell-based
[2] = test system: NCI-H1975; assay: Anti-angiogenesis activity in human NCI-H1975 cells assessed as inhibition of VEGF secretion at 1 to 1.5 uM by ELISA analysis; format: functional, cell-based; settings: dose 1-1.5 µM
[3] = test system: Chorioallantoic membrane; assay: Anti-angiogenesis activity in chicken embryo chorioallantoic membrane at 0.5 to 1.5 uM incubated for 5 days by CAM assay; format: functional, tissue-based; settings: Gallus gallus, dose 0.5-1.5 µM, time 5.0 day
[4] = test system: HLMVEC; assay: Anti-angiogenic activity against human HLMVEC cells assessed as inhibition of VEGFR2 phosphorylation at 0.5 to 1.5 uM by Western blot analysis; format: functional, cell-based; settings: dose 0.5-1.5 µM
[5] = test system: A549; assay: Anti-angiogenic activity against human A549 cells assessed as downregulation of CD26 expression at 0.5 to 1.5 uM by Western blot analysis; format: functional, cell-based; settings: dose 0.5-1.5 µM
[6] = test system: A549; assay: Anti-angiogenic activity against human A549 cells assessed as downregulation of FGF-1 expression at 0.5 to 1.5 uM by Western blot analysis; format: functional, cell-based; settings: dose 0.5-1.5 µM
[7] = test system: A549; assay: Antitumor activity against human A549 cells xenografted in BALB/c nude mouse assessed as reduction of Ki67 expression level in tumor at 80 mg/kg,ip administered once a week for 3 weeks by immunohistochemistry analysis; format: functional, organism-based
[8] = test system: NSCLC; assay: Upregulation of PDK2 gene expression in human NSCLC cells by PCR array; format: functional, cell-based
[9] = test system: NSCLC; assay: Upregulation of INSRR gene expression in human NSCLC cells by PCR array; format: functional, cell-based
[10] = test system: NSCLC; assay: Upregulation of SDHC gene expression in human NSCLC cells by PCR array; format: functional, cell-based
[11] = test system: NSCLC; assay: Upregulation of PC gene expression in human NSCLC cells by PCR array; format: functional, cell-based
[12] = test system: NSCLC; assay: Upregulation of PCK1 gene expression in human NSCLC cells by PCR array; format: functional, cell-based
[13] = test system: NSCLC; assay: Upregulation of H6PD gene expression in human NSCLC cells by PCR array; format: functional, cell-based
[14] = test system: NSCLC; assay: Upregulation of PHKG1 gene expression in human NSCLC cells by PCR array; format: functional, cell-based
[15] = test system: NSCLC; assay: Upregulation of GSK3B gene expression in human NSCLC cells by PCR array; format: functional, cell-based
[16] = test system: NSCLC; assay: Upregulation of PGM2 gene expression in human NSCLC cells by PCR array; format: functional, cell-based
[17] = test system: NSCLC; assay: Upregulation of BPGM gene expression in human NSCLC cells by PCR array; format: functional, cell-based
[18] = test system: NSCLC; assay: Upregulation of ALDOC gene expression in human NSCLC cells by PCR array; format: functional, cell-based
[19] = test system: NSCLC; assay: Upregulation of HK3 gene expression in human NSCLC cells by PCR array; format: functional, cell-based
[20] = test system: NSCLC; assay: Upregulation of SLC2A2 gene expression in human NSCLC cells by PCR array; format: functional, cell-based
[21] = test system: NSCLC; assay: Upregulation of PGAM2 gene expression in human NSCLC cells by PCR array; format: functional, cell-based
[22] = test system: NSCLC; assay: Upregulation of PKLR gene expression in human NSCLC cells by PCR array; format: functional, cell-based
[23] = test system: NSCLC; assay: Upregulation of DLST gene expression in human NSCLC cells by PCR array; format: functional, cell-based
[24] = test system: NSCLC; assay: Upregulation of PDHB gene expression in human NSCLC cells by PCR array; format: functional, cell-based
[25] = test system: NSCLC; assay: Upregulation of DLD gene expression in human NSCLC cells by PCR array; format: functional, cell-based
[26] = test system: NSCLC; assay: Upregulation of IDH1 gene expression in human NSCLC cells by PCR array; format: functional, cell-based
[27] = test system: NSCLC; assay: Upregulation of MDH1 gene expression in human NSCLC cells by PCR array; format: functional, cell-based
[28] = test system: NSCLC; assay: Upregulation of INS gene expression in human NSCLC cells by PCR array; format: functional, cell-based
[29] = test system: NSCLC; assay: Upregulation of FBP2 gene expression in human NSCLC cells by PCR array; format: functional, cell-based
[30] = test system: NSCLC; assay: Upregulation of FBP1 gene expression in human NSCLC cells by PCR array; format: functional, cell-based
[31] = test system: NSCLC; assay: Downregulation of GCK gene expression in human NSCLC cells by PCR array; format: functional, cell-based
[32] = test system: NSCLC; assay: Downregulation of GYS2 gene expression in human NSCLC cells by PCR array; format: functional, cell-based
[33] = test system: NSCLC; assay: Downregulation of PDK4 gene expression in human NSCLC cells by PCR array; format: functional, cell-based
[34] = test system: NSCLC; assay: Downregulation of ACLY gene expression in human NSCLC cells by PCR array; format: functional, cell-based
[35] = test system: NSCLC; assay: Downregulation of MDH1B gene expression in human NSCLC cells by PCR array; format: functional, cell-based
[36] = test system: NSCLC; assay: Downregulation of PRPS1L1 gene expression in human NSCLC cells by PCR array; format: functional, cell-based
[37] = test system: NSCLC; assay: Downregulation of SUCLG2 gene expression in human NSCLC cells by PCR array; format: functional, cell-based
[38] = test system: NSCLC; assay: Downregulation of TPI1 gene expression in human NSCLC cells by PCR array; format: functional, cell-based
[39] = test system: NSCLC; assay: Downregulation of PRPS1 gene expression in human NSCLC cells by PCR array; format: functional, cell-based
[40] = test system: NSCLC; assay: Downregulation of PDHA1 gene expression in human NSCLC cells by PCR array; format: functional, cell-based
[41] = test system: NSCLC; assay: Downregulation of GBE1 gene expression in human NSCLC cells by PCR array; format: functional, cell-based
[42] = test system: NSCLC; assay: Downregulation of ENO2 gene expression in human NSCLC cells by PCR array; format: functional, cell-based
[43] = test system: NSCLC; assay: Downregulation of UGP2 gene expression in human NSCLC cells by PCR array; format: functional, cell-based
[44] = test system: NSCLC; assay: Downregulation of PYGL gene expression in human NSCLC cells by PCR array; format: functional, cell-based
[45] = test system: NSCLC; assay: Downregulation of RPIA gene expression in human NSCLC cells by PCR array; format: functional, cell-based
[46] = test system: NSCLC; assay: Downregulation of PHKB gene expression in human NSCLC cells by PCR array; format: functional, cell-based
[47] = test system: NSCLC; assay: Downregulation of PDPR gene expression in human NSCLC cells by PCR array; format: functional, cell-based
[48] = test system: NSCLC; assay: Downregulation of HPRT1 gene expression in human NSCLC cells by PCR array; format: functional, cell-based
[49] = test system: NSCLC; assay: Downregulation of ACTB gene expression in human NSCLC cells by PCR array; format: functional, cell-based
[50] = test system: NSCLC; assay: Downregulation of PRPS2 gene expression in human NSCLC cells by PCR array; format: functional, cell-based
[51] = test system: NSCLC; assay: Downregulation of IDH3A gene expression in human NSCLC cells by PCR array; format: functional, cell-based
[52] = test system: NSCLC; assay: Downregulation of DLAT gene expression in human NSCLC cells by PCR array; format: functional, cell-based
[53] = test system: NSCLC; assay: Downregulation of SDHB gene expression in human NSCLC cells by PCR array; format: functional, cell-based
[54] = test system: NSCLC; assay: Downregulation of PHK1 gene expression in human NSCLC cells by PCR array; format: functional, cell-based
[55] = test system: NSCLC; assay: Downregulation of GPI gene expression in human NSCLC cells by PCR array; format: functional, cell-based

Q: With `Cc1cccc(/C=N/NC(=O)c2cccc(NS(=O)(=O)c3c[nH]c(=O)[nH]c3=O)c2)c1` as the molecule, how does the CC50 at 24 h [1] read?
A: The CC50 at 24 h was greater than 600 µM.

Q: And the Activity [2]?
A: Its Activity is “Active”.

Q: What about the Activity [3] of the same molecule?
A: Its Activity is “Active”.

Q: And the Activity [4]?
A: Its Activity is “Active”.

Q: And the Activity [5]?
A: The Activity was “Active”.

Q: And the Activity [6]?
A: The Activity was “Active”.

Q: And the Activity [7]?
A: Its Activity is “Active”.

Q: And the Activity [8]?
A: The Activity was “Active”.

Q: What about the Activity [9] of the same molecule?
A: The Activity was “Active”.

Q: What about the Activity [10] of the same molecule?
A: Its Activity is “Active”.

Q: What about the Activity [11] of the same molecule?
A: The Activity was “Active”.

Q: And the Activity [12]?
A: The Activity was “Active”.

Q: What about the Activity [13] of the same molecule?
A: Its Activity is “Active”.

Q: What about the Activity [14] of the same molecule?
A: Its Activity is “Active”.

Q: What about the Activity [15] of the same molecule?
A: Its Activity is “Active”.

Q: What about the Activity [16] of the same molecule?
A: Its Activity is “Active”.

Q: What about the Activity [17] of the same molecule?
A: The Activity was “Active”.

Q: What about the Activity [18] of the same molecule?
A: Its Activity is “Active”.

Q: And the Activity [19]?
A: The Activity was “Active”.

Q: And the Activity [20]?
A: The Activity was “Active”.

Q: What about the Activity [21] of the same molecule?
A: The Activity was “Active”.

Q: What about the Activity [22] of the same molecule?
A: The Activity was “Active”.

Q: And the Activity [23]?
A: The Activity was “Active”.

Q: What about the Activity [24] of the same molecule?
A: Its Activity is “Active”.

Q: And the Activity [25]?
A: Its Activity is “Active”.

Q: What about the Activity [26] of the same molecule?
A: The Activity was “Active”.

Q: What about the Activity [27] of the same molecule?
A: Its Activity is “Active”.

Q: And the Activity [28]?
A: Its Activity is “Active”.

Q: And the Activity [29]?
A: The Activity was “Active”.

Q: What about the Activity [30] of the same molecule?
A: Its Activity is “Active”.

Q: What about the Activity [31] of the same molecule?
A: The Activity was “Active”.

Q: What about the Activity [32] of the same molecule?
A: Its Activity is “Active”.

Q: And the Activity [33]?
A: The Activity was “Active”.

Q: What about the Activity [34] of the same molecule?
A: Its Activity is “Active”.

Q: And the Activity [35]?
A: Its Activity is “Active”.

Q: And the Activity [36]?
A: Its Activity is “Active”.

Q: What about the Activity [37] of the same molecule?
A: Its Activity is “Active”.

Q: What about the Activity [38] of the same molecule?
A: The Activity was “Active”.

Q: What about the Activity [39] of the same molecule?
A: Its Activity is “Active”.

Q: And the Activity [40]?
A: Its Activity is “Active”.

Q: What about the Activity [41] of the same molecule?
A: Its Activity is “Active”.

Q: What about the Activity [42] of the same molecule?
A: The Activity was “Active”.

Q: What about the Activity [43] of the same molecule?
A: The Activity was “Active”.

Q: What about the Activity [44] of the same molecule?
A: The Activity was “Active”.

Q: And the Activity [45]?
A: Its Activity is “Active”.

Q: And the Activity [46]?
A: Its Activity is “Active”.

Q: What about the Activity [47] of the same molecule?
A: Its Activity is “Active”.

Q: And the Activity [48]?
A: Its Activity is “Active”.

Q: And the Activity [49]?
A: The Activity was “Active”.

Q: And the Activity [50]?
A: The Activity was “Active”.

Q: And the Activity [51]?
A: The Activity was “Active”.

Q: And the Activity [52]?
A: Its Activity is “Active”.

Q: What about the Activity [53] of the same molecule?
A: Its Activity is “Active”.

Q: And the Activity [54]?
A: Its Activity is “Active”.

Q: What about the Activity [55] of the same molecule?
A: Its Activity is “Active”.
